How the values were obtained:
[1] = molecular target: T1, CCK-B receptors (CHO-CCK) (Homo sapiens, UniProt P32239); assay: Calcium flux (Fluo-8) agonist test on CHO-CCK model cells; assay type: cell-based; details: for EC50: CHO-CCK cells, compound alone, 100% = 20 nM CCK8; for Agonistic Activity (%) at 10 μM: compound at 10 μM, percentage of signal of 20 nM CCK8 alone
T1 construct: expressed in transfected cells; host or cells: CHO (CHO-CCK model cells)
T1 sequence (P32239 1-447): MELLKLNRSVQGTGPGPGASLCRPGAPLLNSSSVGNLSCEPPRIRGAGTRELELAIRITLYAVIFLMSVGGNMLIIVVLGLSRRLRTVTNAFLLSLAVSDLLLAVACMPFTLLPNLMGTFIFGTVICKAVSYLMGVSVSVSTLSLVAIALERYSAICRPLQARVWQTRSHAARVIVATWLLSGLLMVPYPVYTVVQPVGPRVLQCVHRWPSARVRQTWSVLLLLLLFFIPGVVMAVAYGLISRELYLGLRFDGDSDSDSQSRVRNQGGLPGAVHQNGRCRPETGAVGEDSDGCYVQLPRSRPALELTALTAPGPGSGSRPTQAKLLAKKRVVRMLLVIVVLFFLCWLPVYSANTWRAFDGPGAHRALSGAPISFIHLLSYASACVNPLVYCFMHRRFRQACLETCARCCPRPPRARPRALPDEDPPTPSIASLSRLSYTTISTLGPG
Procedure, shortened: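 Agonist-mode Fluo-8 calcium flux read on CHO-CCK cells after dye loading 30 min at 37 °C plus 30 min at room temperature.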

[2] = molecular target: T1, CCK-B receptors (CHO-CCK); assay: Calcium flux (Fluo-8) antagonist test on CHO-CCK model cells in presence of CCK8; assay type: cell-based
Method: The compound was formulated to a 10 mM mother liquor with DMSO, and then diluted into a series of 9 concentrations with a 3-fold gradient to form a 1000× stock solution. […] Prepare 1×Fluo-8 analysis buffer: mix 9 mL of HHBS, 1 mL of 10× Pluronic F127 Plus and 20 μL of Fluo-8 thoroughly for later use. • 3. Add Fluo-8 dye working solution to the cell plate, 100 μL/well. First incubate in a 37° C. incubator for 30 min, and then take it out and incubate at room temperature in the dark for 30 min. • 4. In the process of incubating cells, the compounds to be detected were prepared with HHBS. • 5. […] The agonism/antagonism EC50 of the compound can be obtained by plotting the fitting curve with the agonism/antagonism percentage as Y-axis and the concentration of the compound as X-axis.

[3] = compound together with 10 nM CCK8

EC50 [1] [nM] | Agonistic Activity (%) at 10 μM [1] [%] | EC50 [2, 3] [µM] | EC50 ([2]; compound together with 10 nM CCK8, bound in μM) [µM] | Compound
88.8 | −3.55 | 0.876 |  | CSCC[C@H](NC(=O)[C@H](N)Cc1c[nH]c2ccccc12)C(=O)N[C@@H](CC(=O)O)C(=O)N[C@@H](Cc1ccc(F)cc1)C(N)=O [HT-36, D-Trp-Met-Asp-Phe(4-F)-NH2]
864 | 52.04 | 1.22 |  | CSCC[C@H](NC(=O)[C@H](N)Cc1c[nH]c2ccccc12)C(=O)N[C@@H](CC(=O)O)C(=O)N[C@@H](Cc1ccc(I)cc1)C(N)=O [HT-37, D-Trp-Met-Asp-Phe(4-I)-NH2]
49.3 | 122.74 | 0.0997 |  | CSCC[C@H](NC(=O)[C@H](N)Cc1c[nH]c2ccccc12)C(=O)N[C@@H](CC(=O)O)C(=O)N[C@@H](Cc1cc(Cl)cc(Cl)c1)C(N)=O [HT-38, D-Trp-Met-Asp-Phe(3,5-DiCl)-NH2]
44.2 | 119.04 | 0.631 |  | CSCC[C@H](NC(=O)[C@H](N)Cc1c[nH]c2ccccc12)C(=O)N[C@@H](CC(=O)O)C(=O)N[C@@H](Cc1cc(F)cc(F)c1)C(N)=O [HT-39, D-Trp-Met-Asp-Phe(3,5-DiF)-NH2]
78 | 98.25 | 0.244 |  | CSCC[C@H](NC(=O)[C@H](N)Cc1c[nH]c2ccccc12)C(=O)N[C@@H](CC(=O)O)C(=O)N[C@@H](Cc1cc(F)c(F)c(F)c1)C(N)=O [HT-40, D-Trp-Met-Asp-Phe(3,4,5-TriF)-NH2]
 | 17.97 | 8.41 |  | C[S+]([O-])CC[C@H](NC(=O)[C@H](N)Cc1c[nH]c2ccccc12)C(=O)N[C@@H](CC(=O)O)C(=O)N[C@@H](Cc1ccccc1F)C(N)=O (stereo partly drawn) [HT-42, D-Trp-Met(O)-Asp-Phe(2-F)-NH2]
3020 | 62.14 | 8.97 |  | C[S+]([O-])CC[C@H](NC(=O)[C@H](N)Cc1c[nH]c2ccccc12)C(=O)N[C@@H](CC(=O)O)C(=O)N[C@@H](Cc1cccc(Cl)c1)C(N)=O (stereo partly drawn) [HT-43, D-Trp-Met(O)-Asp-Phe(3-Cl)-NH2]
 | 34.63 |  | > 10 | C[S+]([O-])CC[C@H](NC(=O)[C@H](N)Cc1c[nH]c2ccccc12)C(=O)N[C@@H](CC(=O)O)C(=O)N[C@@H](Cc1cccc(F)c1)C(N)=O (stereo partly drawn) [HT-44, D-Trp-Met(O)-Asp-Phe(3-F)-NH2]
4380 | 58.98 | 3.37 |  | C[S+]([O-])CC[C@H](NC(=O)[C@H](N)Cc1c[nH]c2ccccc12)C(=O)N[C@@H](CC(=O)O)C(=O)N[C@@H](Cc1cccc(I)c1)C(N)=O (stereo partly drawn) [HT-45, D-Trp-Met(O)-Asp-Phe(3-I)-NH2]
3800 | 53.69 | 6.24 |  | C[S+]([O-])CC[C@H](NC(=O)[C@H](N)Cc1c[nH]c2ccccc12)C(=O)N[C@@H](CC(=O)O)C(=O)N[C@@H](Cc1cccc(Br)c1)C(N)=O (stereo partly drawn) [HT-46, D-Trp-Met(O)-Asp-Phe(3-Br)-NH2]
 | 30.00 | 8.88 |  | C[S+]([O-])CC[C@H](NC(=O)[C@H](N)Cc1c[nH]c2ccccc12)C(=O)N[C@@H](CC(=O)O)C(=O)N[C@@H](Cc1ccc(F)cc1)C(N)=O (stereo partly drawn) [HT-53, D-Trp-Met(O)-Asp-Phe(4-F)-NH2]
1650 | 62.28 | 1.79 |  | C[S+]([O-])CC[C@H](NC(=O)[C@H](N)Cc1c[nH]c2ccccc12)C(=O)N[C@@H](CC(=O)O)C(=O)N[C@@H](Cc1cc(Cl)cc(Cl)c1)C(N)=O (stereo partly drawn) [HT-55, D-Trp-Met(O)-Asp-Phe(3,5-DiCl)-NH2]
 | 39.73 | 9.22 |  | CS(=O)(=O)CC[C@H](NC(=O)[C@H](N)Cc1c[nH]c2ccccc12)C(=O)N[C@@H](CC(=O)O)C(=O)N[C@@H](Cc1ccccc1F)C(N)=O [HT-59, D-Trp-Met(O2)-Asp-Phe(2-F)-NH2]
